Consider one molecule from ChEMBL document CHEMBL4251700, “Novel Staphyloxanthin Inhibitors with Improved Potency against Multidrug Resistant Staphylococcus aureus” (ACS Med Chem Lett, 2018).

The term CC50 denotes the concentration giving 50% cytotoxicity.

Structures are written as SMILES.

Data set [1] in a line: Cytotoxicity against human HepG2 cells after 72 hrs by CCK8 assay. Format: cell-based. (Tetrazolium dyes change colour on reduction, which living cells bring about.)
Data set [2] in a line: Cytotoxicity against HEK293T cells after 72 hrs by CCK8 assay. As to conditions: human. Format: cell-based, HEK-293T.

On to `C[C@@H]1[C@H](O)[C@@H](C)/C=C/C=C/C=C/C=C/C=C/C=C/C=C/[C@H](O[C@@H]2O[C@H](C)[C@@H](O)[C@H](N)[C@@H]2O)C[C@@H]2O[C@](O)(C[C@@H](O)C[C@@H](O)[C@H](O)CC[C@@H](O)C[C@@H](O)CC(=O)O[C@H]1C)C[C@H](O)[C@H]2C(=O)O` [AMPHOTERICIN B], for which the results for the CC50 at 72 h in data set [1] and in data set [2] were 37.8 µM and 27.5 µM, respectively.
